From patent publication US20100004293A1, “CRYSTALLINE FORMS OF ARYL-SUBSTITUTED PYRAZOLE-AMIDE COMPOUNDS” (Bristol-Myers Squibb Company, priority 2006, published 2010)
Values after ≈ are worked out from the molar mass of the structure shown. Each block holds one compound with its values, some of them ahead of it.

Legend:
drying studies for H-1 = format: physicochemical
Source text: (§1) Based on the equilibrium RH studies, N-2 could undergo hydrate formation during handling, formulation or storage.

moisture sorption study = format: physicochemical
Source text: (§2) The available data establish the following RH range for equilibrium N-2/H-1 conversion: 25%<RHeq<=30%. Wetcakes subjected to RH<30% are subject to dehydration, kinetic factors notwithstanding.

[1] = solid-state storage stability (temperature/humidity, HIL, filler excipients); format: physicochemical
Source text: as §1

[2] = aqueous solubility of crystalline forms; format: physicochemical
[3] = dehydration/heating of monohydrate H-1; format: physicochemical
[4] = slurry conversion studies in butanol/water mixtures (N-2/H-1); format: physicochemical; settings: N-2 versus H-1, butanol/water slurry
Source text: as §2

[5] = solvate stability by single crystal structure determination at different temperatures; format: physicochemical; settings: solvent site fully occupied at −50° C., still 50% occupied at +82° C.
Source text: In addition to the monohydrate, Compound I also forms solvates with a large number of organic solvents. The type 3 family of solvates (represented by an EtOAc solvate, form EA.5-3; a PrOAc solvate, form PA.5-3; a MeCN solvate, form AN-3; and a CH2CL2 solvate, DC-3) have a large hydrophobic clathrate channel (V˜215 Å^3) parallel to the crystallographic a repeat. […] The single crystal structures of an ethanol solvate (E-8), an isopropanol solvate (IPA-10), a second acetonitrile form (AN-11) and three mixed solvates (SA-9, SB-12, SC-13) with THF and water have been determined.

[6] = monkey PK crossover study; format: in vivo; settings: monkey PK crossover study (n=4)
Source text: as §1

[7] = slurry conversion studies at 25 and 50° C. and melting data (relative polymorph stability); format: physicochemical
[8] = exposed to HIL for at least 1 week
[9] = stored at 50° C./75% RH open and closed for at least 4 weeks

- form conversion on drying (drying studies for H-1; dryer at 20-30% RH): no conversion was observed
- form conversion on drying (drying studies for H-1; dryer maintained at 40° C. at RH 2.4-3.4%): converted to N-7
- hygroscopicity (moisture sorption study; about 35 to about 75% RH): essentially non-hygroscopic
- water sorption, descending RH run (moisture sorption study; at 25% RH): partially dehydrated
- chemical and physical stability in the solid-state [1, 8]: chemically and physically stable
- chemical and physical stability in the solid-state [1, 9]: chemically and physically stable
- aqueous solubility [2]: 7 µg/mL (≈ 15.8 µM)
- form conversion upon heating ([3]; 90° C., 30 m, to neat form T1H1 (N-7)): converts topotactically
- stability under reduced humidity ([3]; reduced humidity): unstable
- RH at which the form is the more stable form [4]: ≥ 30%
Structure (SMILES): Cc1ccc(C(=O)NC2CC2)cc1NC(=O)c1cnn(-c2ncccc2C(F)(F)F)c1C [Form H-1, N-(5-(cyclopropylcarbamoyl)-2-methylphenyl)-5-methyl-1-(3-(trifluoromethyl)pyridin-2-yl)-1H-pyrazole-4-carboxamide]

- stability of solvate [5]: relatively stable
Structure (SMILES): Cc1ccc(C(=O)NC2CC2)cc1NC(=O)c1cnn(-c2ncccc2C(F)(F)F)c1C [Form M-4]

- exposure for the N-2 relative to H-1 [6]: ~2 fold
- hygroscopicity (moisture sorption study; about 25 to about 75% RH at 25° C.): non-hygroscopic
- chemical and physical stability in the solid-state [1, 8]: chemically and physically stable
- form conversion (hydrate formation) on storage ([1]; stored 3 weeks or more at elevated temperature and humidity (e.g., 50° C./75% RH), in the presence of common filler excipients): no conversion
- chemical and physical stability in the solid-state [1, 9]: chemically and physically stable
- aqueous solubility [2]: ≥ 28 µg/mL
- solubility ratio (N-2 to H-1) ([2]; aqueous solubility, N-2 relative to H-1): ~4 ×
- relative stability among polymorphic (neat) forms ([7]; at 25° C. and 50° C.): most stable polymorphic (neat) form
- RH at which the form is the more stable form [4]: ≤ 16%
Structure (SMILES): Cc1ccc(C(=O)NC2CC2)cc1NC(=O)c1cnn(-c2ncccc2C(F)(F)F)c1C [Form N-2, N-(5-(cyclopropylcarbamoyl)-2-methylphenyl)-5-methyl-1-(3-(trifluoromethyl)pyridin-2-yl)-1H-pyrazole-4-carboxamide]

- relative stability N-5:N-6 (monotropes) ([7]; N-5 versus N-6): more stable
Structure (SMILES): Cc1ccc(C(=O)NC2CC2)cc1NC(=O)c1cnn(-c2ncccc2C(F)(F)F)c1C [Form N-5, N-(5-(cyclopropylcarbamoyl)-2-methylphenyl)-5-methyl-1-(3-(trifluoromethyl)pyridin-2-yl)-1H-pyrazole-4-carboxamide]

Structure (SMILES): Cc1ccc(C(=O)NC2CC2)cc1NC(=O)c1cnn(-c2ncccc2C(F)(F)F)c1C [Form N-7, N-(5-(cyclopropylcarbamoyl)-2-methylphenyl)-5-methyl-1-(3-(trifluoromethyl)pyridin-2-yl)-1H-pyrazole-4-carboxamide]
- relative stability of N-7 (monotropic with N-2, N-5 and N-6) ([7]; versus N-2, N-5 and N-6): less stable at all temperatures below 192 °C

- water sorption, ascending RH run (moisture sorption study; between 75 and 95% RH): partially rehydrates to H-1
Structure (SMILES): Cc1ccc(C(=O)NC2CC2)cc1NC(=O)c1cnn(-c2ncccc2C(F)(F)F)c1C [dehydrated H-1]
